pIC50: −log10 of the molar value. Some results are limits rather than exact numbers.

The values that follow come from ChEMBL document CHEMBL5143554, “Discovery of phenylpyrrolidine derivatives as a novel class of retinol binding protein 4 (RBP4) reducers” (Bioorg Med Chem, 2022).

Data set [1] can be described thus: Inhibition of His-tagged human RBP4- biotin immobilized TTR (unknown origin) protein-protein interaction in presence of retinol by ELISA. Background: In an ELISA, binding on a coated surface is turned into a signal by an enzyme label.
The nature of data set [2]: Inhibition of His-tagged mouse RBP4- biotin immobilized TTR (unknown origin) protein-protein interaction in presence of retinol by ELISA.
Data set [3] can be described thus: Reduction in blood RBP4 level in C57BL/6J mouse assessed as RBP4 leve in blood at 0.3 mg/kg, po after 4 hrs by ELISA (reference value: 100 +/- 3.9%). In kind it is functional. Details: scale not given: the % may be the effect or the level left.
Data set [4] is described as follows: Reduction in blood RBP4 level in C57BL/6J mouse assessed as RBP4 leve in blood at 10 mg/kg, po after 24 hrs by ELISA (reference value: 100%). Details: scale not given: the % may be the effect or the level left. In kind it is functional.
For data set [5], the system named is Mus musculus. Put plainly: Reduction in blood RBP4 level in C57BL/6J mouse assessed as RBP4 leve in blood at 0.3 to 10 mg/kg, po after 4 to 24 hrs hrs by ELISA (reference value: 100%). In kind it is functional, organism-based. The conditions noted are these: dose 0.3-10 mg/kg, time 4-24 hrs, DDE = dose-dependent effect.
Data set [6] in a line: Reduction in blood RBP4 level in C57BL/6J mouse assessed as RBP4 leve in blood at 0.3 mg/kg, po after 7 hrs by ELISA (reference value: 100 +/- 3.9%). The format is functional. Details: scale not given: the % may be the effect or the level left.
Data set [7] in a line: Reduction in blood RBP4 level in C57BL/6J mouse assessed as RBP4 leve in blood at 3 mg/kg, po after 24 hrs by ELISA (reference value: 100 +/- 12%). The format is functional. Details: scale not given: the % may be the effect or the level left.
Data set [8] in a line: Reduction in blood RBP4 level in C57BL/6J mouse assessed as RBP4 leve in blood at 3 mg/kg, po after 7 hrs by ELISA (reference value: 100 +/- 12%). In kind it is functional. Details: scale not given: the % may be the effect or the level left.
Data set [9] can be described thus: Reduction in blood RBP4 level in C57BL/6J mouse assessed as RBP4 leve in blood at 1 mg/kg, po after 7 hrs by ELISA (reference value: 100 +/- 9.8%). The format is functional. Details: scale not given: the % may be the effect or the level left.
A short description of data set [10]: Reduction in blood RBP4 level in C57BL/6J mouse assessed as RBP4 leve in blood at 1 mg/kg, po after 4 hrs by ELISA (reference value: 100 +/- 9.8%). In kind it is functional. Details: scale not given: the % may be the effect or the level left.
Data set [11] can be described thus: Reduction in blood RBP4 level in C57BL/6J mouse assessed as RBP4 leve in blood at 0.3 mg/kg, po after 24 hrs by ELISA (reference value: 100 +/- 3.9%). In kind it is functional. Details: scale not given: the % may be the effect or the level left.
The nature of data set [12]: Cmax in ICR mouse at 1 mg/kg, po. The following applies: in vivo. In kind it is ADME, organism-based. Details: dose 1 mg/kg, route po.
Data set [13] can be described thus: Oral bioavilability in ICR mouse at 1 mg/kg. The format is ADME, organism-based. The following applies: in vivo.
Data set [14] can be described thus: AUC in ICR mouse at 1 mg/kg, po. The format is ADME, organism-based. Details: dose 1 mg/kg, route po. The following applies: in vivo.
The nature of data set [15]: Reduction in blood RBP4 level in C57BL/6J mouse assessed as RBP4 leve in blood at 3 mg/kg, po after 4 hrs by ELISA (reference value: 100 +/- 12%). In kind it is functional. Details: scale not given: the % may be the effect or the level left.
Data set [16] is described as follows: Reduction in blood RBP4 level in C57BL/6J mouse assessed as RBP4 leve in blood at 1 mg/kg, po after 24 hrs by ELISA (reference value: 100 +/- 9.8%). In kind it is functional. Details: scale not given: the % may be the effect or the level left.
Data set [17] in a line: Reduction in blood RBP4 level in C57BL/6J mouse assessed as RBP4 leve in blood at 10 mg/kg, po after 4 hrs by ELISA (reference value: 100%). In kind it is functional. Details: scale not given: the % may be the effect or the level left.
Data set [18] is described as follows: Reduction in blood RBP4 level in C57BL/6J mouse assessed as RBP4 leve in blood at 10 mg/kg, po after 7 hrs by ELISA (reference value: 100%). In kind it is functional. Details: scale not given: the % may be the effect or the level left.

As a reminder, the pIC50 is the IC50 on a negative log10 scale, so that one unit is a factor of ten. As to `O=C(O)CCC1CCN(c2cc(C(F)(F)F)cc(C(F)(F)F)c2)C1` (racemic), the pIC50 is 7.29 in data set [1] and 6.66 in [2].
Regarding `COC(=O)CO[C@H]1CCN(c2cc(C(F)(F)F)cc(C(F)(F)F)c2)C1`, the pIC50 in [1] was 6.82; in data set [2], 6.70.
With `O=C(O)COC1CCN(c2cccc(C(F)(F)F)c2)C1` (racemic), the pIC50 was 6.28 in data set [1] and 5.62 in [2].
On the same counts, the results for `FC(F)(F)c1cc(N2CCC(OCc3nnn[nH]3)C2)cc(C(F)(F)F)c1` (racemic) are 7.32 and 6.57.
As for `O=C(O)C1CCN(c2cc(C(F)(F)F)cc(C(F)(F)F)c2)C1` (racemic), the pIC50 is 6.00 in data set [1] and 5.23 in data set [2].
Take `O=C(O)CCc1nc(-c2cc(C(F)(F)F)cc(C(F)(F)F)c2)co1`: the negative logarithm of the IC50 (pIC50) in data set [1] was 7.62; in data set [2], 6.38.
On the same counts, the results for `O=C(O)CCc1cnc(-c2cc(C(F)(F)F)cc(C(F)(F)F)c2)o1` are 5.22 and less than 4.52.
With `O=C(O)CCc1ncc(-c2cc(C(F)(F)F)cc(C(F)(F)F)c2)o1`, the values for the pIC50 in data set [1] and in data set [2] were 6.89 and 5.92, respectively.
For `O=C(O)COC1CCN(c2cc(Cl)cc(C(F)(F)F)c2)C1` (racemic) the same measures were 7.02 and 6.38.
For `O=C(O)CCC1CCN(c2cc(C(F)(F)F)cc(C(F)(F)F)c2)CC1` the same measures were 6.57 and 5.42.
For the compound `O=C(O)COC1CCN(c2cccc(C(F)(F)F)c2F)C1` (racemic), the negative-log IC50 (pIC50) was 6.62 in data set [1] and 5.82 in [2].
What is called Cmax is the maximum level reached in the sampled fluid or tissue. A word on the bioavailability: it is dose-corrected exposure relative to a reference, in per cent. The term AUC denotes concentration integrated over time. Turning to `O=C(O)CO[C@H]1CCN(c2cc(C(F)(F)F)cc(C(F)(F)F)c2)C1`, the Activity in data set [3] is 64.6%; in data set [4] it was 37.5%; in data set [5], “Dde”; in [6], 56.6%; in data set [7], 43.6%; in data set [8], 41.5%. The Activity stood at 42.4% in data set [9]; 51.6% in [10]; 75% in [11]; 50.4% in data set [15]; 53% in data set [16]; 39.5% in data set [17]. The Activity in data set [18] is on record as 39.6%. Further, the values for the pIC50 in [1] and in [2] were 7.55 and 6.96, respectively. Further, the peak concentration (Cmax) in data set [12] was 2910 ng/mL. Also, the bioavailability in data set [13] stood at 58%. Further, the AUC in data set [14] amounted to 22000 ng·h/mL.
With `O=C(O)CCC1CN(c2cc(C(F)(F)F)cc(C(F)(F)F)c2)C1`, the pIC50 in [1] is 7.40; in [2], 6.13.
As to `COc1cc(N2CCC(OCC(=O)O)C2)cc(C(F)(F)F)c1` (racemic), the pIC50 in data set [1] was 7.09; in data set [2] it was 6.06.
Turning to `O=C(O)COC1CCN(c2ccc(F)c(C(F)(F)F)c2)C1` (racemic), the results for the pIC50 in [1] and in [2] were 6.64 and 5.80, respectively.
Regarding `O=C(O)COC1CCN(c2cc(C(F)(F)F)cc(C(F)(F)F)c2)C1` (racemic), the negative logarithm of the IC50 (pIC50) was 7.80 in data set [1] and 7.00 in [2].
In the case of `O=C(O)CO[C@@H]1CCN(c2cc(C(F)(F)F)cc(C(F)(F)F)c2)C1`, the Activity in [4] worked out at 38.6%; in [17], 42.2%; in [18], 40.5%. Also, the pIC50 in data set [1] was 7.68; in [2] it was 6.89. This compound registered a Cmax in data set [12] of 2920 ng/mL. The same compound gave a bioavailability in data set [13] of 51%. This compound showed an AUC in data set [14] of 17900 ng·h/mL.
With `O=C(O)COC1CCN(c2cc(F)cc(C(F)(F)F)c2)C1` (racemic), the results for the negative logarithm of the IC50 (pIC50) in data set [1] and in data set [2] were 6.72 and 5.92, respectively.
For the compound `O=C(O)CC1CCN(c2cc(C(F)(F)F)cc(C(F)(F)F)c2)C1` (racemic), the pIC50 in data set [1] was 7.38; in data set [2] it was 6.52.
